Measured values reported in patent US6943181B2, “Use of substituted gamma-lactone compounds as pharmaceutical preparations” (Grunenthal GmbH, priority 2001, dated 2005).

These compounds were tested against T1, nitrogen monoxide synthase (NO synthase) (Rattus norvegicus, UniProt P29476) (assay: HTS-NOS assay (nitrogen monoxide synthase assay)). Conditions: compound at 10 μM; enzyme preparation from rat cerebella; [3H]-arginine substrate.
T1 construct: the supernatant was then decanted off and frozen in portions; from tissue; host or cells: rat cerebellum (homogenate, 20,000 g supernatant)
Format: biochemical
Source text: This assay makes it possible to determine the percentage inhibition of NO synthase by a compound of the general formula I used according to the invention by measuring NOS activity on exposure to the compound. NO synthase is here mixed under suitable conditions together with radioactively labelled arginine and the particular compound of the general formula I. After termination of the NO formation reaction at a predetermined time, the quantity of unconverted arginine is directly or indirectly determined. […] This assay may be carried out at follows: • (a) Incubation of the NO synthase with labelled arginine as the substrate in a reaction vessel, • (b) Separation of the labelled arginine from the labelled citrulline optionally arising as a product of the enzymatic reaction at a time at which the concentration of citrulline is rising, • (c) Measurement of the quantity of arginine separated in each case.
Separation is performed by means of a filter plate membrane.
Radioactive arginine is used as the substrate in this HTS-NOS assay. Depending on the type of microtitre plate (MTP), the assay volume may be selected in the range between 25 μl and 250 μl. Depending on the enzyme source used, cofactors and coenzymes are added. The batches are incubated in this microtitre plate (assay MTP) according to step (a) at room temperature and, depending on the enzyme activity used (units), lasts between 5 and 60 minutes. On completion of incubation (step (a)), the plate is placed in a cell harvester, which is equipped with an MTP which has a cation exchange membrane as a filter bottom (filter MTP). All the batches from the assay MTP are transferred into this filter MTP and suction filtered through a cation exchange filter plate, a paper filter loaded with phosphate groups. The filter MTP is then washed with buffer or water. This procedure binds the remaining substrate arginine onto the cation exchanger, while the enzymatically formed radioactive citrulline is quantitatively eluted. Once the filter MTP has been dried and scintillation liquid added, the bound arginine can be counted in the scintillation counter. Low radioactivity indicates an uninhibited NOS reaction. An inhibited enzyme reaction means that the radioactive arginine has not been converted. This means that there is a high level of radioactivity on the filter.
• Arginine, L-[2,3,4-^3H]-monohydrochloride; item no. […] The pH value of the buffer was adjusted to 7.4 at 25° C. • Washing medium: H2O Enzyme Preparation
Rat cerebella were used as the starting tissue. The animals were stunned and killed, the brain tissue, the cerebellum, was dissected out, 1 ml of enzyme preparation buffer (4° C.) was added per cerebellum, and the tissue was disrupted for 1 min at 6000 rpm in a Polytron homogeniser. The mixture was then centrifuged at 4° C. for 15 min at 20,000 g, and the supernatant was then decanted off and frozen in portions at −80° C. (discarding the precipitate).
96-Well MTPs with a well capacity of ≦250 μl were used Pipetting sequence: see table 1:
Once the pipetting operation was complete, a lid was laid on top of this MTP (assay MTP). Incubation at 25° C. (room temperature (RT)) for 5-60 min, depending on the quantity and activity of the enzyme used.
The contents of the assay MTP were then transferred with the assistance of a 96 well cell harvester into a 96 well cation exchange MTP (filter MTP) and suction filtered. A single washing with […] of H2O (from a trough) was then performed.
The plate was then dried for 1 h at 60° C. in a drying cabinet. The bottom of the filter MTP was then carefully sealed from beneath with a “back seal”. 35 μl of scintillating material were then pipetted into each well. The top of the plate was also sealed with a “top seal”. After 1 hour's waiting time, the plate was assessed on the β-counter.

Compound | inhibition at 10 µM | NOS (% inhibition)
Cc1ccnc(NC2CC(C)(c3ccc(C(C)(C)C)cc3)OC2=O)c1[N+](=O)[O-] (stereo not shown) [Example 16, 5-(4-tert-Butyl-phenyl)-5-methyl-3-(4-methyl-3-nitro-pyridin-2-ylamino)-dihydro-furan-2-one] | 47% | 
Cc1nc(NC2CC(C)(c3ccc(I)cc3)OC2=O)ccc1Br (stereo not shown) [Example 54, 3-(5-Bromo-6-methyl-pyridin-2-ylamino)-5-(4-iodo-phenyl)-5-methyl-dihydro-furan-2-one] | 70% | 
CC1(c2ccc(Oc3ccccc3)cc2)CC(Nc2ncccc2OCc2ccccc2)C(=O)O1 (stereo not shown) [Example 19, 3-(3-Benzyloxy-pyridin-2-ylamino)-5-methyl-5-(4-phenoxy-phenyl)-dihydro-furan-2-one] | 40% | 
CCCc1cccc(NC2CC(C)(c3cccc4ccccc34)OC2=O)n1 (stereo not drawn) [Example 49, 5-Methyl-5-naphthalen-l-yl-3-(6-propyl-pyridin-2-ylamino)-dihydro-furan-2-one] |  | 53%
CCCc1nc(NC2CC(C)(c3cc(OC)cc(OC)c3)OC2=O)ncc1C(=O)OCC (stereo not shown) [Example 61, 2-[5-(3,5-Dimethoxy-phenyl)-5-methyl-2-oxo-tetrahydro-furan-3-ylamino]-4-propyl-pyrimidine-5-carboxylic acid ethyl ester] | 40% | 
CC(C)C1(c2ccccc2)CC(Nc2ncc(Br)cc2[N+](=O)[O-])C(=O)O1 (stereo not shown) [Example 42, 3-(5-Bromo-3-nitro-pyridin-2-ylamino)-5-isopropyl-5-phenyl-dihydro-furan-2-one] | 41% | 
CC1(c2ccc3c(c2)OCO3)CC(Nc2ncccc2[N+](=O)[O-])C(=O)O1 (stereo not shown) [Example 34, 5-Benzo[1,3]dioxol-5-yl-5-methyl-3-(3-nitro-pyridin-2-ylamino)-dihydro-furan-2-one] | 40% | 
COc1ccc(OC)c(C2(C)CC(Nc3n[nH]cc3C#N)C(=O)O2)c1 (stereo not shown) [Example 64, 3-[5-(2,5-Dimethoxy-phenyl)-5-methyl-2-oxo-tetrahydro-furan-3-ylamino]-1H-pyrazole-4-carbonitrile] | 42% | 
COc1ccc(OC)c(C2(C)CC(Nc3ncc(C(F)(F)F)cc3Cl)C(=O)O2)c1 (stereo not shown) [Example 69, 3-(3-Chloro-5-trifluoromethyl-pyridin-2-ylamino)-5-(2,5-dimethoxy-phenyl)-5-methyl-dihydro-furan-2-one] | 58% | 

Now from value to compound:

inhibition at 10 µM | NOS (% inhibition) | Compound
45% |  | Cc1cc(C)nc(NC2CC(C)(c3ccc(C)c(C)c3)OC2=O)c1 (stereo not shown) [Example 2, 5-(3,4-Dimethyl-phenyl)-3-(4,6-dimethyl-pyridin-2-ylamino)-5-methyl-dihydro-furan-2-one]
40% |  | COc1cccc(C2(C)CC(Nc3cc(C)cc(C)n3)C(=O)O2)c1 (stereo not shown) [Example 72, 3-(4,6-Dimethyl-pyridin-2-ylamino)-5-(3-methoxy-phenyl)-5-methyl-dihydro-furan-2-one]
79% |  | Cc1ccnc(NC2CC(C)(c3ccc(Oc4ccccc4)cc3)OC2=O)c1 (stereo not shown) [Example 23, 5-Methyl-3-(4-methyl-pyridin-2-ylamino)-5-(4-phenoxy-phenyl)-dihydro-furan-2-one]
41% |  | Cc1ccnc(NC2CC(C)(c3cc4ccccc4s3)OC2=O)c1 (stereo not shown) [Example 30, 5-Benzo[b]thiophen-2-yl-5-methyl-3-(4-methyl-pyridin-2-ylamino)-dihydro-furan-2-one]
40% |  | Cc1ccc(C2(C)CC(Nc3ccc4cccc(O)c4n3)C(=O)O2)c(C)c1 (stereo not shown) [Example 1, 5-(2,4-Dimethyl-phenyl)-3-(8-hydroxy-quinolin-2-ylamino)-5-methyl-dihydro-furan-2-one]
61% |  | CCCc1cccc(NC2CC(C)(c3cccc(Cl)c3)OC2=O)n1 (stereo not shown) [Example 50, 5-(3-Chloro-phenyl)-5-methyl-3-(6-propyl-pyridin-2-ylamino)-dihydro-furan-2-one]
68% |  | Cc1cc(C)nc(NC2CC(C)(c3ccc(C(C)C)cc3)OC2=O)c1 (stereo not shown) [Example 28, 3-(4,6-Dimethyl-pyridin-2-ylamino)-5-(4-isopropyl-phenyl)-5-methyl-dihydro-furan-2-one]
